Measured values as given in patent US8399451B2, “Heterocyclic compounds” (Bristol-Myers Squibb Company, priority 2009, dated 2013).
pEC50, pIC50: −log10 of the molar value. Read-outs that look alike come from different tables or passages of the source.

Columns and labels:
circulating lymphocytes = assay: Blood Lymphocyte Reduction Assay (BLR) in Rodents; format: in vivo; settings: Lewis rats, oral, vs vehicle (PEG300)
Protocol: Blood Lymphocyte Reduction Assay (BLR) in Rodents
Lewis rats were dosed orally with test article (as a solution or suspension in the vehicle) or vehicle alone (polyethylene glycol 300, “PEG300”). Blood was drawn at 4 hr by retro-orbital bleeding. Blood lymphocyte counts were determined on an ADVIA® 120 Hematology Analyzer (Siemens Healthcare Diagnostics). The results were measured as a reduction in the percentage of circulating lymphocytes as compared to the vehicle treated group at the 4 hr measurement.

S1P1 [1] = molecular target: T1, S1P1 (Homo sapiens, UniProt P21453); assay: S1P1 Binding Assay (33P-S1P radioligand competition, membranes); design: expressed in transfected cells; host or cells: CHO cells; settings: membranes from CHO cells expressing human S1P1; 0.03 nM 33P-S1P; rounded to two digits
Protocol: Membranes were prepared from CHO cells expressing human S1P1. Cells were dissociated in buffer containing 20 mM HEPES, pH 7.5, 50 mM NaCl, 2 mM EDTA and Protease Inhibitor cocktail (Roche), and disrupted on ice using the Polytron homogenizer. The homogenate was centrifuged at 20,000 rpm (48,000 G) and the supernatant was discarded. The membrane pellets were resuspended in buffer containing 50 mM HEPES, pH 7.5, 100 mM NaCl, 1 mM MgCl2, 2 mM EDTA and stored in aliquots at −80° C. after protein concentration determination.
Binding was performed for 45 minutes at room temperature, terminated by collecting the membranes onto GF/B filter plates, and radioactivity was measured by TOPCOUNT®. The competition data of the test compounds over a range of concentrations was plotted as percentage inhibition of radioligand specific binding.
The results in Table A were rounded to two digits.

S1P3 = molecular target: T2, S1P3 (Homo sapiens, UniProt Q99500); assay: Receptor [35S] GTPγS Binding Assay, membranes from EDG3-Ga15-bla HEK293T cells; format: biochemical; settings: * detection limit 31,000 nM or 62,000 nM
T2 construct: expressed in transfected cells; host or cells: EDG3-Ga15-bla HEK293T cells
Protocol: (§1) Receptor [35S] GTPγS Binding Assays
(§2) Membranes prepared from S1P1/CHO cells or EDG3-Ga15-bla HEK293T cells were added to the compound plate (40 μl/well, final protein 3 μg/well) with MULTIDROP®. [^35S]GTP (1250 Ci/mmol, Perkin Elmer) was diluted in assay buffer: 20 mM HEPES, pH7.5, 10 mM MgCl2, 150 mM NaCl, 1 mM EGTA, 1 mM DTT, 10 μM GDP, 0.1% fatty acid free BSA, and 10 μg/ml Saponin to 0.4 nM. 40 μl of the [^35S] GTP solution was added to the compound plate with a final concentration of 0.2 nM. […] At the end of incubation, all the mixtures in the compound plate were transferred to a 384 well FB filter plates via GPCR robot system. […] 30 μl of MicroScint 20 scintillation fluid was added to each well for counting at Packard TOPCOUNT®.

S1P1 [2] = molecular target: T1, S1P1; assay: Receptor [35S] GTPγS Binding Assay, membranes from S1P1/CHO cells; format: biochemical; design: expressed in transfected cells; host or cells: S1P1/CHO cells; settings: for S1P3/S1P1 GTPγS (ratio of S1P3 GTPγS EC50 to S1P1 GTPγS EC50): selectivity ratio calculated from Table B, * may be greater than reported value due to S1P3 assay limits
Protocol: as §1, §2

[3] = membranes from S1P1/CHO cells, read-out: S1P1 GTPγS EC50

T2 sequence (Q99500 whole entry): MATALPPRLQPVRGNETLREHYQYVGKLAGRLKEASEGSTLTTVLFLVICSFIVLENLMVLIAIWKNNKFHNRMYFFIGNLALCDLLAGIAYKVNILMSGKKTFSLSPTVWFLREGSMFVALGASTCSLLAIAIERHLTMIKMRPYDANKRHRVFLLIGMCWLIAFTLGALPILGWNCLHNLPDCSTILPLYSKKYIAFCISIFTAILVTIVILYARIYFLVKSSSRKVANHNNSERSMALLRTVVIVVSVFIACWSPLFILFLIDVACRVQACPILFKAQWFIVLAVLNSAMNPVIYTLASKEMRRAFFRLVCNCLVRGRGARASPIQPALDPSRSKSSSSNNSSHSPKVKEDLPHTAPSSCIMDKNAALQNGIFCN
T1 sequence (P21453 whole entry): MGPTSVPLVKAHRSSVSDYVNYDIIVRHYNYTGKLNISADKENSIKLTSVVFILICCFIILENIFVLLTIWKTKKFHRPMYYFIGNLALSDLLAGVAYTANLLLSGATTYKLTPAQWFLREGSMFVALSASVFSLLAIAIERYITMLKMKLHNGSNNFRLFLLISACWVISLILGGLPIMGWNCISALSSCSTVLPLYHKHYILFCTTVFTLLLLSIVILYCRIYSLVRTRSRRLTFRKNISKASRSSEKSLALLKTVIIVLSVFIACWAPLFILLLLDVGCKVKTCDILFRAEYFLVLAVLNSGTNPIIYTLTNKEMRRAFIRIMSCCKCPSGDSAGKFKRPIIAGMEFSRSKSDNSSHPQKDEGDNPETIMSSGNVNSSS

Q: O=C(O)[C@H]1CCCN(C[C@@H](O)c2ccc(-c3noc(-c4onc(-c5ccccc5)c4C(F)(F)F)n3)cc2)C1 [Example 14, (S)-1-((S)-2-Hydroxy-2-(4-(5-(3-phenyl-4-(trifluoromethyl)isoxazol-5-yl)-1,2,4-oxadiazol-3-yl)phenyl)ethyl)piperidine-3-carboxylic acid] was tested. Which “% Reduction in Lymphocytes at 4 hr.” value (circulating lymphocytes; dose 3 mg/kg) did it give?
A: 83%

Q: How did the pIC50 (S1P1 [1]) turn out when CCCc1c(-c2nc(-c3ccc(C(O)CN4CC[C@@H]4C(=O)O)cc3)no2)noc1-c1ccccc1 (stereo partly drawn) [Example 7, (2R)-1-(2-Hydroxy-2-(4-(5-(5-phenyl-4-propylisoxazol-3-yl)-1,2,4-oxadiazol-3-yl)phenyl)ethyl)azetidine-2-carboxylic acid] was run?
A: 7.92

Q: O=C(O)CCC1CCCN(CC(O)c2ccc(-c3noc(-c4onc(-c5ccccc5)c4C(F)(F)F)n3)cc2)C1 (stereo not drawn) [Example 40, 3-(1-(2-Hydroxy-2-(4-(5-(3-phenyl-4-(trifluoromethyl)isoxazol-5-yl)-1,2,4-oxadiazol-3-yl)phenyl)ethyl)piperidin-3-yl)propanoic acid] was tested. Which “% Reduction in Lymphocytes at 4 hr.” value (circulating lymphocytes; dose 5.5 mg/kg) did it give?
A: 80%

Q: With CCCc1c(-c2nc(-c3ccc(C(O)CN4CCCCC4C(=O)O)cc3)no2)noc1-c1ccccc1 (stereo not drawn) [Example 2, 1-(2-Hydroxy-2-(4-(5-(5-phenyl-4-propylisoxazol-3-yl)-1,2,4-oxadiazol-3-yl)phenyl)ethyl)piperidine-2-carboxylic acid] as the compound, how does the pIC50 (S1P1 [1]) read?
A: 8.66

Q: With CCCc1c(-c2nc(-c3ccc(C(O)CN4CCC[C@H](C(=O)O)C4)cc3)no2)noc1-c1ccccc1 (stereo partly drawn) [Example 4, (3S)-1-(2-Hydroxy-2-(4-(5-(5-phenyl-4-propylisoxazol-3-yl)-1,2,4-oxadiazol-3-yl)phenyl)ethyl)piperidine-3-carboxylic acid] as the compound, how does the “% Reduction in Lymphocytes at 4 hr.” value (circulating lymphocytes; dose 3 mg/kg) read?
A: 71%

Q: O=C(O)C[C@H]1CCCN(C[C@@H](O)c2ccc(-c3noc(-c4onc(-c5ccccc5)c4C(F)(F)F)n3)cc2)C1 [Example 18, 2-((3R)-1-(2-Hydroxy-2-(4-(5-(3-phenyl-4-(trifluoromethyl)isoxazol-5-yl)-1,2,4-oxadiazol-3-yl)phenyl)ethyl)piperidin-3-yl)acetic acid] was tested. Which “% Reduction in Lymphocytes at 4 hr.” value (circulating lymphocytes; dose 1 mg/kg) did it give?
A: 82%

Q: How did the pIC50 (S1P1 [1]) turn out when CCCc1c(-c2nc(-c3ccc(C(O)CN4CCOC(C(=O)O)C4)cc3)no2)noc1-c1ccccc1 (stereo not drawn) [Example 11, 4-(2-Hydroxy-2-(4-(5-(5-phenyl-4-propylisoxazol-3-yl)-1,2,4-oxadiazol-3-yl)phenyl)ethyl)morpholine-2-carboxylic acid] was run?
A: 8.32

Q: Which results are given for CC(O)(CN1CCC[C@H](C(=O)O)C1)c1ccc(-c2noc(-c3onc(-c4ccccc4)c3C(F)(F)F)n2)cc1 (stereo partly drawn) [Example 17, (3S)-1-(2-Hydroxy-2-(4-(5-(3-phenyl-4-(trifluoromethyl)isoxazol-5-yl)-1,2,4-oxadiazol-3-yl)phenyl)propyl)piperidine-3-carboxylic acid]?
A: pEC50 (S1P3): 5.92; pIC50 (S1P1 [1]): 7.55; pEC50 (S1P1 [2]; [3]): 6.49; S1P3/S1P1 GTPγS (ratio of S1P3 GTPγS EC50 to S1P1 GTPγS EC50) (S1P1 [2]): 3.8

Q: With CCCc1c(-c2nc(-c3ccc(C(O)CN4CCCC(C(=O)N(CC)CC)C4)cc3)no2)noc1-c1ccccc1 (stereo not drawn) [Example 24, N,N-Diethyl-1-(2-hydroxy-2-(4-(5-(5-phenyl-4-propylisoxazol-3-yl)-1,2,4-oxadiazol-3-yl)phenyl)ethyl)piperidine-3-carboxamide] as the compound, how does the pEC50 (S1P3) read?
A: 5.46

Q: What about the pIC50 (S1P1 [1]) of the same compound?
A: 7.37

Q: And the pEC50 (S1P1 [2]; [3])?
A: 6.39

Q: What about the “S1P3/S1P1 GTPγS (ratio of S1P3 GTPγS EC50 to S1P1 GTPγS EC50)” value (S1P1 [2]) of the same compound?
A: 8.6

Q: With CCCc1c(-c2nc(-c3ccc(CCN4CCC[C@H](C(=O)O)C4)cc3)no2)noc1-c1ccccc1 [Comparative Compound 119, (S)-1-(4-(5-(5-Phenyl-4-propylisoxazol-3-yl)-1,2,4-oxadiazol-3-yl)phenethyl)piperidine-3-carboxylic acid, reference compound] as the compound, how does the pEC50 (S1P3) read?
A: < 4.21

Q: What about the pIC50 (S1P1 [1]) of the same compound?
A: 6.38

Q: And the pEC50 (S1P1 [2]; read-out: S1P1 GTPγS EC50 value)?
A: 4.51

Q: And the “S1P3/S1P1 GTPγS (ratio of S1P3 GTPγS EC50 to S1P1 GTPγS EC50)” value (S1P1 [2])?
A: 2.3

Q: And the “S1P3/S1P1 GTPγS (ratio of S1P3 GTPγS EC50 to S1P1 GTPγS EC50)” value (S1P1 [2]; listed as Comp. 119)?
A: 2.3*

Q: CCCc1c(-c2nc(-c3ccc(C(O)CN4CC(C(=O)O)C4)cc3)no2)noc1-c1ccccc1 (stereo not drawn) [Example 1, 1-(2-Hydroxy-2-(4-(5-(5-phenyl-4-propylisoxazol-3-yl)-1,2,4-oxadiazol-3-yl)phenyl)ethyl)azetidine-3-carboxylic acid] was tested. Which pIC50 (S1P1 [1]) did it give?
A: 9.35
